In paper PMC8152971, “Valeriana rigida Ruiz & Pav. Root Extract: A New Source of Caffeoylquinic Acids with Antioxidant and Aldose Reductase Inhibitory Activities” (Foods, 2021):
Values joined by “and” are separate entries in the source; they are usually repeats but may differ in a detail not shown here. Equal values may be shown once. Read-outs that look alike come from different tables or passages of the source. Marks after values point to notes of the source that are not given here. Blank lines part the entries; values can stand above or below the compound they belong to.

Assays:
[1] = DPPH radical scavenging assay; conditions: Trolox equivalent antioxidant capacity, mean ± SD, n ≥ 3
Experimental: The experiment was carried out as previously described. […] Thereafter, the absorbance was measured using a microplate reader (EL800, Bio-Tek Instruments, Winooski, VT, USA) at 570 nm.

[2] = ABTS radical scavenging assay; conditions: Trolox equivalent antioxidant capacity, mean ± SD, n ≥ 3
Experimental: The experiment was conducted as previously described. In brief, 3.5 mM of potassium persulfate aqueous solution was used to prepare 0.2 mM of ABTS diammonium salt. The solution was diluted 10-fold using distilled water and allowed to produce ABTS radicals (ABTS^+) by keeping the solution in the dark for 14 h at room temperature. […] Equation (1) was used to calculate the ABTS^+ scavenging activity (%), where Acontrol is the absorbance of ABTS^+ solution free of samples, Asample is the absorbance of ABTS^+ solution incubated with a sample, Ablank1 is the absorbance of the test sample free of ABTS^+ solution, and Ablank2 is the absorbance of the diluted potassium persulfate solution.

[3] = Oxygen radical absorbance capacity (ORAC) assay; conditions: Trolox equivalent antioxidant capacity, mean ± SD, n ≥ 3
Experimental: The oxygen radical absorbance capacity (ORAC) assay was performed as previously described. Briefly, 0. […] Next, 60 µL of AAPH (40 mM) was added to generate peroxyl radicals to initiate the reaction.

[4] = Hypochlorous acid (HOCl) scavenging assay
Experimental: The HOCl scavenging assay was adapted from a previous study using 1,8-diaminonaphthalene as a fluorescence probe for hypochlorite. […] Next, the fluorescence intensity (λex = 360 ± 20 nm, λem = 460 ± 20 nm) was immediately measured using a microplate fluorescence reader (FLx800; Bio-Tek, Winooski, VT, USA). Trolox (final concentration 25–100 µg/mL) was used as a reference antioxidant.

[5] = target: T1, rat lens AR homogenate (aldose reductase) (Rattus norvegicus, UniProt P07943); assay: AR inhibition assay; format: biochemical, Sprague–Dawley rats
T1 construct: the lenses were removed from the eyes, ground in a mortar; from tissue; host or cells: lens of Sprague–Dawley rats
Experimental: The eyes of 10-week Sprague–Dawley rats (250–280 g) were removed and frozen at −70 °C before use. Thereafter, the lenses were removed from the eyes, ground in a mortar (precooled at −70 °C), and extracted using 0.1 M PBS of pH 6.2 (around 0.5 mL of buffer per two frozen rat lenses).
The AR inhibitory activities of the extract and the separated compounds were determined as described previously. […] Next, the reaction was initiated by adding 20 µL of the substrate (DL-glyceraldehyde dimmer, 25 mM in 0.1 M PBS of pH 7.0), and the values were further measured for 6 min at 340 nm (OD340) using an Epoch microplate spectrophotometer (BioTek Instruments, Winooski, VT, USA). […] The DMSO used for sample preparation was less than 0.4% (v/v) in the reaction system.

[6] = Partition coefficient (K upper/lower) in biphasic CCC solvent systems; format: physicochemical
Experimental: The solvent system was screened via HPLC and evaluated according to the partition coefficient (K value) of the target compounds on the principle introduced by Ito [32]. Briefly, four solvent systems comprising EtOAc, n-BuOH, […] solution to 29 mM, and then the corresponding K values of the target compounds under acidic (Kacid) or basic (Kbase) conditions were determined, as previously described: each acidified or basified solvent system was partitioned to upper layer and lower layer. Thereafter, the extract (about 1–2 mg) was prepared in a 1.5 mL tube and dissolved by adding equal volumes (each 500 µL) of the upper layer and lower layers, which were mixed by a vortex mixer and centrifuged for about 20 s using a C1301 Mini Centrifuge (Labnet International, South Korea). Next, the upper and lower phase sample solutions were respectively pipetted (each 200 µL) into a new 1.5 mL-tube and evaporated by nitrogen gas. Each sample residue was redissolved using 200 µL of MeOH and subjected to HPLC analysis with an injection volume of 20 µL. The K value was calculated as K = Aupper/Alower, where Aupper and Alower are the HPLC peak areas of the target component in the upper and lower phases, respectively.

[7] = read-out: AR inhibitory Activity Inhibition (%)
[8] = rat lens AR, read-out: AR inhibitory Activity IC50
[9] = EtOAc/H2O, 1:1, 208 mM formic acid
[10] = EtOAc/n-BuOH/H2O, 2:3:5, 30 mM ammonia
[11] = EtOAc/n-BuOH/H2O, 2:3:5, 208 mM formic acid
[12] = EtOAc/n-BuOH/H2O, 3:2:5, 30 mM ammonia
[13] = EtOAc/n-BuOH/H2O, 3:2:5, 208 mM formic acid
[14] = EtOAc/n-BuOH/H2O, 4:1:5, 30 mM ammonia
[15] = EtOAc/n-BuOH/H2O, 4:1:5, 208 mM formic acid

SMILES: O=C(/C=C/c1ccc(O)c(O)c1)O[C@@H]1[C@H](O)C[C@@](O)(C(=O)O)C[C@H]1OC(=O)/C=C/c1ccc(O)c(O)c1 [4,5-diCQA (6), 4,5-di-O-caffeoylquinic acid]
TE, DPPH [1]: 1.23 ± 0.07 ^a µmol Trolox Equivalents Per µmol Compound
TE, ABTS [2]: 1.22 ± 0.03 ^b µmol Trolox Equivalents Per µmol Compound
TE, ORAC [3]: 3.70 ± 0.34 ^a µmol Trolox Equivalents Per µmol Compound
HOCl Scavenging Activity Inhibition (%) ([4]; 3.125 µM): 48.80 ± 5.62%
HOCl Scavenging Activity Inhibition (%) ([4]; 6.25 µM): 51.23 ± 2.14%
HOCl Scavenging Activity Inhibition (%) ([4]; 12.5 µM): 65.80 ± 4.06%
IC50 ([4]; linear regression): 4610 nM
inhibition at 0.098 µM ([5]; 0.098 µM, read-out: AR inhibitory Activity Inhibition (%)): 23.7 ± 2.7%
inhibition at 0.195 µM [5, 7]: 44.4 ± 4.45%
inhibition at 0.391 µM [5, 7]: 65.9 ± 2.21%
IC50 [5, 8]: 230 nM
K(upper/lower) Value ([6]; EtOAc/H2O, 1:1, 30 mM ammonia): 0.01
K(upper/lower) Value [6, 9]: 12.24
K(upper/lower) Value [6, 10]: 0.13
K(upper/lower) Value [6, 11]: 45.95
K(upper/lower) Value [6, 12]: 0.05
K(upper/lower) Value [6, 13]: 41.13
K(upper/lower) Value [6, 14]: 0.01
K(upper/lower) Value [6, 15]: 22.17

SMILES: O=c1c(O)c(-c2ccc(O)c(O)c2)oc2cc(O)cc(O)c12 [Quercetin, quercetin, reference compound]
inhibition at 1.889 µg/mL [5, 7]: 34.8 ± 0.51%
inhibition at 3.778 µg/mL [5, 7]: 46 ± 4.49%
inhibition at 6.25 µM [5, 7]: 34.8 ± 0.51%
inhibition at 7.556 µg/mL [5, 7]: 67 ± 3.22%
inhibition at 12.5 µM [5, 7]: 46 ± 4.49%
inhibition at 25 µM [5, 7]: 67 ± 3.22%

SMILES: Cc1c(C)c2c(c(C)c1O)CCC(C)(C(=O)O)O2 (stereo not drawn) [Trolox, reference compound]
HOCl Scavenging Activity Inhibition (%) ([4]; 6.25 µg/mL): 40.76 ± 0.39%
HOCl Scavenging Activity Inhibition (%) ([4]; 12.5 µg/mL): 66.53 ± 2.54%
HOCl Scavenging Activity Inhibition (%) ([4]; 25 µM): 40.76 ± 0.39%
HOCl Scavenging Activity Inhibition (%) ([4]; 25 µg/mL): 97.07 ± 5.45%
HOCl Scavenging Activity Inhibition (%) ([4]; 50 µM): 66.53 ± 2.54%
HOCl Scavenging Activity Inhibition (%) ([4]; 100 µM): 97.07 ± 5.45%
HOCl Scavenging Activity IC50 ([4]; linear regression): 8.52 µg/mL
IC50 ([4]; linear regression): 34000 nM

SMILES: C[C@@H]1O[C@@H](Oc2c(-c3ccc(O)c(O)c3)oc3cc(O)cc(O)c3c2=O)[C@H](O)[C@H](O)[C@H]1O [Quercitrin, quercitrin, reference compound]
IC50 ([5]; AR Inhibitory Activity IC50, rat lens AR): 103 nM
IC50 ([5]; AR inhibitory Activity IC50, rat lens AR): 102 nM and 100 nM
inhibition at 0.056 µg/mL [5, 7]: 62.33 ± 0.44%
inhibition at 0.063 µM [5, 7]: 32.6 ± 2.7%
inhibition at 0.112 µg/mL [5, 7]: 74.6 ± 1.11%
inhibition at 0.125 µM [5, 7]: 62.33 ± 0.44%
inhibition at 0.25 µM [5, 7]: 74.6 ± 1.11%

SMILES: O=C(/C=C/c1ccc(O)c(O)c1)O[C@@H]1C[C@@](O)(C(=O)O)C[C@@H](O)[C@@H]1O [3-CQA (1), 3-O-caffeoylquinic acid]
inhibition at 1.5625 µM ([5]; 1.5625 µM, read-out: AR inhibitory Activity Inhibition (%)): 29.4 ± 3.4%
inhibition at 3.125 µM ([5]; 3.125 µM, read-out: AR inhibitory Activity Inhibition (%)): 45.8 ± 1.75%
inhibition at 6.25 µM ([5]; 6.25 µM, read-out: AR inhibitory Activity Inhibition (%)): 60.1 ± 1.22%
K(upper/lower) Value ([6]; EtOAc/H2O, 1:1, 30 mM ammonia): 0.02
K(upper/lower) Value [6, 9]: 0.49
K(upper/lower) Value [6, 10]: 0.01
K(upper/lower) Value [6, 11]: 2.49
K(upper/lower) Value [6, 12]: 0.05
K(upper/lower) Value [6, 13]: 2.03
K(upper/lower) Value [6, 14]: 0.00
K(upper/lower) Value [6, 15]: 1.36
K(upper/lower) Value ([6]; n-BuOH/H2O, 1:1): 0.04
K(upper/lower) Value ([6]; n-BuOH/H2O, 1:1 + 8.7 mM acetic acid): 0.73

Continued, in another order:

inhibition at 0.391 µM [5, 7]: 30.8 ± 2.18%
inhibition at 0.781 µM [5, 7]: 44.2 ± 1.17%
inhibition at 1.563 µM ([5]; 1.563 µM, read-out: AR inhibitory Activity Inhibition (%)): 63.8 ± 2.55%
IC50 [5, 8]: 910 nM
K(upper/lower) Value ([6]; EtOAc/H2O, 1:1, 30 mM ammonia): 0.01
K(upper/lower) Value [6, 9]: 0.95
K(upper/lower) Value [6, 10]: 0.01
K(upper/lower) Value [6, 11]: 6.86
K(upper/lower) Value [6, 12]: 0.03
K(upper/lower) Value [6, 13]: 5.48
K(upper/lower) Value [6, 14]: 0.01
K(upper/lower) Value [6, 15]: 2.43
SMILES: O=C(/C=C/c1ccc(O)c(O)c1)O[C@@H]1C[C@](O)(C(=O)O)C[C@@H](O)[C@H]1O [5-CQA (2), 5-O-caffeoylquinic acid]

inhibition at 25 µM ([5]; 25 µM, read-out: AR inhibitory Activity Inhibition (%)): 12.3 ± 4.22%
inhibition at 50 µM ([5]; 50 µM, read-out: AR inhibitory Activity Inhibition (%)): 24 ± 0.63%
inhibition at 100 µM ([5]; 100 µM, read-out: AR inhibitory Activity Inhibition (%)): 36.3 ± 3.78%
SMILES: COc1ccc(-c2cc(=O)c3c(O)cc(O)cc3o2)cc1 [Acacetin (8), acacetin]

inhibition at 0.01 µg/mL [5, 7]: 21.7 ± 1.25%
inhibition at 0.02 µg/mL [5, 7]: 79.3 ± 1.35%
inhibition at 0.031 µM [5, 7]: 21.7 ± 1.25%
inhibition at 0.04 µg/mL [5, 7]: 91.8 ± 1.84%
inhibition at 0.063 µM [5, 7]: 79.3 ± 1.35%
inhibition at 0.125 µM [5, 7]: 91.8 ± 1.84%
SMILES: CC(/C=C1\SC(=S)N(CC(=O)O)C1=O)=C\c1ccccc1 [Epalrestat, epalrestat, reference compound]

IC50 ([4]; linear regression): 11700 nM
inhibition at 0.195 µM [5, 7]: 27.6 ± 2.43%
inhibition at 0.391 µM [5, 7]: 49.7 ± 0.94%
inhibition at 0.781 µM [5, 7]: 69.8 ± 0.77%
IC50 [5, 8]: 400 nM
K(upper/lower) Value ([6]; EtOAc/H2O, 1:1, 30 mM ammonia): 0.02
K(upper/lower) Value [6, 9]: 23.71
K(upper/lower) Value [6, 10]: 0.40
K(upper/lower) Value [6, 11]: 29.51
K(upper/lower) Value [6, 12]: 0.22
K(upper/lower) Value [6, 13]: 26.44
K(upper/lower) Value [6, 14]: 0.03
K(upper/lower) Value [6, 15]: 27.56
SMILES: O=C(/C=C/c1ccc(O)c(O)c1)O[C@@H]1C[C@](O)(C(=O)O)C[C@@H](OC(=O)/C=C/c2ccc(O)c(O)c2)[C@H]1OC(=O)/C=C/c1ccc(O)c(O)c1 [3,4,5-triCQA (7), 3,4,5-tri-O-caffeoylquinic acid]
TE, DPPH [1]: 1.28 ± 0.04 ^a µmol Trolox Equivalents Per µmol Compound
TE, ABTS [2]: 1.31 ± 0.05 ^a µmol Trolox Equivalents Per µmol Compound
TE, ORAC [3]: 1.95 ± 0.15 ^b µmol Trolox Equivalents Per µmol Compound
HOCl Scavenging Activity Inhibition (%) ([4]; 6.25 µM): 35.39 ± 1.17%
HOCl Scavenging Activity Inhibition (%) ([4]; 12.5 µM): 52.93 ± 1.02%
HOCl Scavenging Activity Inhibition (%) ([4]; 25 µM): 84.32 ± 3.39%
